The subject of one test is rat isolated aortae. Description: In vitro vascular studies by wire myography. The conditions noted are these: for Time-dependent relaxation of the rat aorta: 2 h (120 min), pre-contracted aortae.
Test [1] relates to rat/Wistar. Description: Aripiprazole-induced ptosis. The conditions noted are these: ip, 1 hour after aripiprazole po. The class given is in vivo. Here is the method:
(§1) Animals were subjected to a protocol as illustrated in FIG. 5.
(§2) Rats were made to fast from 6 PM on the day before the experiment until sacrifice. Rats were weighed and orally (PO) administered aripiprazole. […] For measurement of catalepsy, the observations were performed three times at each observation time point. The animals were forced to hang with their right forepaw on the upper edge of a steel can (diameter: 6 cm, height: 10 cm). When the animals remained in the unnatural vertical position for 30 seconds or longer, they were judged to be positive responders for catalepsy.
The measurement of ptosis was performed as follows. Each animal was individually taken from the home cage and put on the experimenter's hand to observe the eyes. The ptosis score was determined for both eyes as described below, and the scores for the two eyes were added to obtain the total score (maximum score, 8) • 0: Normal • 1: Mild ptosis (upper eyelid covered ¼ of the eye) • 2: Moderate ptosis (upper eyelid covered ½ of the eye) • 3: Severe ptosis (upper eyelid covered ¾ of the eye) • 4: Complete ptosis (upper eyelid covered the entire eye)

Test [2] deals with rat/Wistar. Description: Aripiprazole-induced catalepsy. The format is in vivo. The conditions noted are these: ip, 1 hour after aripiprazole po. Here is the method:
as §1, §2

Test [3] concerns small resistance mesenteric vessels and aorta. In words: Chronic treatment of rats with CBD: vascular responses in isolated arteries. The format is in vivo, rat. The conditions noted are these: animals treated for 2 weeks.
The next test concerns 3T3L1 cells. Description: Induction of adipocyte differentiation (Oil Red O staining). The format is cell-based. The conditions noted are these: treated for 8 days.
In a further test the target is T1, PPARγ (Homo sapiens, UniProt P37231).
T1 construct: expressed in transfected cells
T1 sequence (P37231 1-505): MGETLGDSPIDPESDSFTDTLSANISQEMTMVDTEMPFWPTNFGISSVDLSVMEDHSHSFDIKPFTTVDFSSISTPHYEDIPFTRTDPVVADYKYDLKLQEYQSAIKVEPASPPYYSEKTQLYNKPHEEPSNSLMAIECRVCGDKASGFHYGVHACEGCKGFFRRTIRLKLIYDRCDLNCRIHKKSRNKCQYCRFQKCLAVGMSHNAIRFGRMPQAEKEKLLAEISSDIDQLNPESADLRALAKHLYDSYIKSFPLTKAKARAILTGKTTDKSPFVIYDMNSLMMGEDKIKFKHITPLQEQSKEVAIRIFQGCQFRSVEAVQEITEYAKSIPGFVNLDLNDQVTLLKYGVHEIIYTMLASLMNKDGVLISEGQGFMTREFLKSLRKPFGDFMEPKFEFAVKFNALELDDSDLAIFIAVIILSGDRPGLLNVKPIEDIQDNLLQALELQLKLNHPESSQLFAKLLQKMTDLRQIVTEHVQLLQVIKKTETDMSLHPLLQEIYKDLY
T1 sequence (P19793 1-462 partner): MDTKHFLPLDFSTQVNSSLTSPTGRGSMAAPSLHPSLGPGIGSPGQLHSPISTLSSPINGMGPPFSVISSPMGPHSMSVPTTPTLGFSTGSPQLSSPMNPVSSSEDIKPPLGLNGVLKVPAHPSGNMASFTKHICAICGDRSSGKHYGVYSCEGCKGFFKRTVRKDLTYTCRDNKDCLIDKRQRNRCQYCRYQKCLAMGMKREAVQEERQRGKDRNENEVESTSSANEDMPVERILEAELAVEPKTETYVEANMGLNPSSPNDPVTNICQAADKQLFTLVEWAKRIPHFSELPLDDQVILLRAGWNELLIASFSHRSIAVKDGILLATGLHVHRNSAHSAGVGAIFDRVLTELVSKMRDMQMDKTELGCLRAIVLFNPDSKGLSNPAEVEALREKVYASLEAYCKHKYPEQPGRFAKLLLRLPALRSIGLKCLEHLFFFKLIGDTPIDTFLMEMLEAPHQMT
Description: Transcriptional transactivation (luciferase reporter gene) assay. The conditions noted are these: any concentration tested; in words. The format is cell-based. Here is the method: In vitro vascular studies were carried out in rat isolated aortae by wire myography. PPARγ activation was investigated using reporter gene assays, a PPARγ competition-binding assay and an adipogenesis assay.

Results on three compounds are retold here after patent US9017737B2, “Use of cannabinoids in combination with an anti-psychotic medicament” (priority 2008, dated 2015).

For `C=C(C)[C@@H]1CCC(C)=C[C@H]1c1c(O)cc(CCCCC)cc1O` [CBD, cannabidiol], in the test with rat isolated aortae (10 μM), the “Time-dependent relaxation of the rat aorta” value was found to be 69.7±4.0 % relaxation. Further, the “Residual relaxation (vasorelaxant effect minus the vasorelaxant effect of vehicle and time)” value in the test on rat isolated aortae (10 μM, after 2 h) stood at 50.1±3.3 % relaxation. The “Basal tension over time” value with rat isolated aortae (2 h) is -0.03 ± 0.01 g. Also, the “Time-dependent vascular responses with the CB1 receptor antagonist AM251” value with rat isolated aortae (AM251 1 μM) is reported as “did not significantly affect”. For the same compound, the “Residual vasorelaxant effect in the presence of the PPARγ receptor antagonist GW9662” value in the test on rat isolated aortae (GW9662 1 μM, after 1 h of incubation) is recorded as “significantly reduced”. For the same compound, in the test on rat isolated aortae (L-NAME 300 μM, vs control conditions), the “Residual vasorelaxant effect in the presence of the nitric oxide synthase inhibitor L-NAME” value is on record as “not different”. For the same compound, in the test on rat isolated aortae (PTX 200 ng ml−1, 2 h or capsaicin 10 μM, 1 h), the “Vascular response over time after pre-treating arteries with PTX or capsaicin” value was “no effect”. Besides, in the test on rat isolated aortae (SR144528 1 μM, between 45 min to 90 min), the “Residual vasorelaxant effects with the CB2 receptor antagonist SR144528” value is “significantly inhibited”. The “Potency and maximal contractile response to the re-introduction of calcium” value in the test on rat isolated aortae (calcium free, high potassium Krebs-Hensleit solution, 1 μM to 30 μM, concentration-dependent) was “significantly reduced”. In the test on rat isolated aortae (compared with control), the “Vasorelaxant effect in arteries contracted with a high potassium buffer” value was “no difference” and the “Vasorelaxant effect in vessels where tone was induced with U46619 in calcium free buffer” value was “significantly blunted”. Also, in the test with rat isolated aortae (endothelium-denuded), the “Vasorelaxant effect in endothelium-denuded and control aortae” value is given as “similar”. Also, in the test with rat/Wistar [1] (120 mg/kg), the “Aripiprazole-induced ptosis in rats” value is reported as “significantly decreased”. In the test on rat/Wistar [2] (120 mg/kg), the “Aripiprazole-induced catalepsy in rats” value is “significantly decreased”. For the same compound, in test [3], the “Maximal response to methoxamine in the aorta” value came to 1.63±0.21 g increase tension; the “Potency of acetylcholine (pEC50) in the aorta” value is listed as 5.37±0.40; the “Potency of methoxamine (pEC50), small resistance mesenteric vessels” value is on record as 5.79±0.10. For the same compound, the “Differentiation of 3T3 L1 cells to adipocytes (fat droplet accumulation, Oil Red O)” value with 3T3L1 cells is given as “signs of fat droplet accumulation were apparent at all concentrations tested”.

As to `CCCc1cc(O)c2c(c1)OC(C)(C)[C@@H]1CCC(C)=C[C@@H]21` [THCV, tetrahydrocannabivarin], the “Time-dependent relaxation of the rat aorta” value with rat isolated aortae (10 μM) is 28.7±4.6 % relaxation. Besides, the “Effect on tone in pre-contracted aortae” value with rat isolated aortae (10 μM, in words) is listed as “no effect on tone until after 105 minutes”. Moreover, the “Aripiprazole-induced ptosis in rats” value in the test with rat/Wistar [1] (60 mg/kg) was “significantly decreased”. For the same compound, the “Aripiprazole-induced catalepsy in rats” value in the test with rat/Wistar [2] (60 mg/kg) is on record as “significantly decreased”. Also, the PPARγ transcriptional activity result on PPARγ is listed as “no effect”.

As to `COc1ccc(CCN(C)CCCC(C#N)(c2ccc(OC)c(OC)c2)C(C)C)cc1OC` (stereo not drawn) [verapamil, reference compound], the “Vasorelaxation of pre-constricted vessels” value in the test with rat isolated aortae (more rapid onset than CBD) is given as “significant vasorelaxation”.
